Measured values as given in the supplement of paper PMC8612539.
≈ marks a conversion by molar mass, not a printed value.

System: Histophilus somni
Assay: minimum inhibitory concentration (MIC)
Method: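 Broth microdilution MIC (Sensititre BOPO7F bovine plate, CLSI methods) of 19 antimicrobials against field isolates of P. multocida, M. haemolytica, H. somni (deep nasopharyngeal swabs) and E. coli, Enterococcus spp. (rectal swabs) from weaned dairy heifers. Incubation 16-24 h at 35 C. MIC is the lowest concentration preventing visible growth. Values with <= or > lie at the tested range limits. Trimethoprim-sulfamethoxazole is given as the trimethoprim component of a 1:19 mixture.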

CC1(C)S[C@@H]2[C@H](NC(=O)Cc3ccccc3)C(=O)N2[C@H]1C(=O)O [Penicillin]
Settings | minimum inhibitory concentration [µg/mL]
isolate (source animal id): 3 | ≤ 0.12
isolate (source animal id): 4 | ≤ 0.12
isolate (source animal id): 7 | ≤ 0.12
isolate (source animal id): 14 | ≤ 0.12
isolate (source animal id): 15 | 0.25 (≈ 0.748 µM)
isolate (source animal id): 17 | ≤ 0.12
isolate (source animal id): 18 | ≤ 0.12
isolate (source animal id): 20 | ≤ 0.12
isolate (source animal id): 23 | ≤ 0.12
isolate (source animal id): 45 | ≤ 0.12
isolate (source animal id): 53 | ≤ 0.12
isolate (source animal id): 83 | ≤ 0.12
isolate (source animal id): 88 | ≤ 0.12
isolate (source animal id): 92 | ≤ 0.12
isolate (source animal id): 93 | ≤ 0.12
isolate (source animal id): 99 | ≤ 0.12
isolate (source animal id): 100 | ≤ 0.12
isolate (source animal id): 105 | ≤ 0.12
isolate (source animal id): 107 | ≤ 0.12
isolate (source animal id): 108 | ≤ 0.12
isolate (source animal id): 109 | ≤ 0.12
isolate (source animal id): 110 | ≤ 0.12
isolate (source animal id): 117 | ≤ 0.12
isolate (source animal id): 121 | ≤ 0.12
isolate (source animal id): 123 | ≤ 0.12
isolate (source animal id): 124 | ≤ 0.12
isolate (source animal id): 127 | ≤ 0.12
isolate (source animal id): 128 | ≤ 0.12
isolate (source animal id): 130 | ≤ 0.12
isolate (source animal id): 132 | ≤ 0.12
isolate (source animal id): 135 | ≤ 0.12
isolate (source animal id): 140 | ≤ 0.12
isolate (source animal id): 141 | ≤ 0.12
isolate (source animal id): 142 | ≤ 0.12
isolate (source animal id): 144 | ≤ 0.12
isolate (source animal id): 146 | ≤ 0.12
isolate (source animal id): 147 | ≤ 0.12
isolate (source animal id): 151 | ≤ 0.12
isolate (source animal id): 153 | ≤ 0.12
isolate (source animal id): 154 | ≤ 0.12
isolate (source animal id): 156 | ≤ 0.12
isolate (source animal id): 157 | ≤ 0.12
isolate (source animal id): 176 | ≤ 0.12
isolate (source animal id): 183 | ≤ 0.12
isolate (source animal id): 186 | ≤ 0.12
isolate (source animal id): 196 | ≤ 0.12
isolate (source animal id): 198 | ≤ 0.12
isolate (source animal id): 200 | ≤ 0.12
isolate (source animal id): 206 | ≤ 0.12
isolate (source animal id): 208 | ≤ 0.12
isolate (source animal id): 210 | ≤ 0.12
isolate (source animal id): 212 | ≤ 0.12
isolate (source animal id): 215 | ≤ 0.12
isolate (source animal id): 216 | ≤ 0.12
isolate (source animal id): 218 | ≤ 0.12
isolate (source animal id): 219 | ≤ 0.12
isolate (source animal id): 224 | ≤ 0.12
isolate (source animal id): 228 | ≤ 0.12
isolate (source animal id): 230 | ≤ 0.12
isolate (source animal id): 233 | ≤ 0.12
isolate (source animal id): 238 | ≤ 0.12
isolate (source animal id): 239 | ≤ 0.12
isolate (source animal id): 241 | ≤ 0.12
isolate (source animal id): 242 | ≤ 0.12
isolate (source animal id): 243 | ≤ 0.12
isolate (source animal id): 245 | 0.25 (≈ 0.748 µM)
isolate (source animal id): 246 | ≤ 0.12
isolate (source animal id): 247 | ≤ 0.12
isolate (source animal id): 248 | ≤ 0.12
isolate (source animal id): 250 | ≤ 0.12
isolate (source animal id): 251 | ≤ 0.12
isolate (source animal id): 252 | ≤ 0.12
isolate (source animal id): 254 | 0.25 (≈ 0.748 µM)
isolate (source animal id): 258 | ≤ 0.12
isolate (source animal id): 259 | ≤ 0.12
isolate (source animal id): 262 | ≤ 0.12
isolate (source animal id): 264 | ≤ 0.12
isolate (source animal id): 265 | 8 (≈ 23.9 µM)
isolate (source animal id): 266 | ≤ 0.12
isolate (source animal id): 267 | ≤ 0.12
isolate (source animal id): 269 | ≤ 0.12
isolate (source animal id): 271 | ≤ 0.12
isolate (source animal id): 272 | 8 (≈ 23.9 µM)
isolate (source animal id): 274 | ≤ 0.12
isolate (source animal id): 276 | ≤ 0.12
isolate (source animal id): 278 | ≤ 0.12
isolate (source animal id): 280 | 0.5 (≈ 1.5 µM)
isolate (source animal id): 281 | ≤ 0.12
isolate (source animal id): 283 | 0.25 (≈ 0.748 µM)
isolate (source animal id): 288 | ≤ 0.12
isolate (source animal id): 291 | ≤ 0.12
isolate (source animal id): 292 | ≤ 0.12
isolate (source animal id): 296 | ≤ 0.12
isolate (source animal id): 306 | ≤ 0.12
isolate (source animal id): 336 | ≤ 0.12
isolate (source animal id): 337 | ≤ 0.12
isolate (source animal id): 341 | ≤ 0.12
